Patent US10858365B2, “Triazolo-pyrimidine compounds and uses thereof” (Dizal (Jiangsu) Pharmaceutical Co., Ltd., priority 2018, dated 2020)

Tests used:
hA1 [1] = molecular target: T1, hA1 (Homo sapiens (Human), UniProt P30542); assay: Radioligand binding to hA1 membrane ([3H]-DPCPX); conditions: 50 min at 25° C., read-out: Binding Affinity (IC50 nM) hA1
Method: (§1) Binding affinity and specificities of the compounds against different subtype of human adenosine receptors (hA1, hA2A, hA2B and hA3) were characterized with cell membrane chromatography binding analysis.
(§2) The compounds at different concentrations were incubate with hA1 membrane (from PerkinElmer) and [^3H]-8-Cyclopentyl-1,3-dipropylxanthine (DPCPX) for 50 min at 25° C., meanwhile 100 μL 0.5% PEI solution was added into […]-96 GF/B filter plate for 60 min at 4° C., then […]-96 GF/B filter plate was washed twice with 50 ml wash buffer, the membrane mix was transferred into […]-96 GF/B filter plate, and the filter plate was washed 4 times before incubated at 55° C. for 10 min. At last, […] ULTIMA GOLD was added into each well, and CPM was read by TopCount.
(§3) The empty boxes in the tables below indicate data not available.

hA2a [2] = molecular target: T2, hA2a (Homo sapiens (Human), UniProt P29274); assay: Radioligand binding to hA2a membrane ([3H]-CGS21680); conditions: [3H]-CGS21680, 90 min at 25° C., read-out: Binding Affinity (IC50 nM) hA2a
T2 sequence (P29274 whole entry): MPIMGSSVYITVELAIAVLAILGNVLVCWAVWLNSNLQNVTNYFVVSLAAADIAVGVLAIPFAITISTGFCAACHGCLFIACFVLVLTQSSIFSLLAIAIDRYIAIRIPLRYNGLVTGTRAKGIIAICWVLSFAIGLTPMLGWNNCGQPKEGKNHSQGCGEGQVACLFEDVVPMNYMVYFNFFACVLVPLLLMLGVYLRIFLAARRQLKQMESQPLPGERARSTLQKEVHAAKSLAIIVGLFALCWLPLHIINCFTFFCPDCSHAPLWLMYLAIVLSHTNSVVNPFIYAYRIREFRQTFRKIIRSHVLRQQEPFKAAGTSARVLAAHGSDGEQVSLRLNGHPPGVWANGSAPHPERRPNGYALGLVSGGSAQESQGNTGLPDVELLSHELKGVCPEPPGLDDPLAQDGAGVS
Method: as §1
as §2, with “with hA2a” for “with hA1”, “and [^3H]-CGS21680” for “and [^3H]-8-Cyclopentyl-1,3-dipropylxanthine (DPCPX)”, “for 90” for “for 50”
as §3

hA2b = hA2b (Homo sapiens (Human), UniProt P29275); assay: cAMP inhibition assay in hA2b/CHO cells; type: cell-based; conditions: adenosine stimulation, read-out: cAMP & FLIPR IC50 (nM) hA2b
Chain of hA2b (P29275 whole entry): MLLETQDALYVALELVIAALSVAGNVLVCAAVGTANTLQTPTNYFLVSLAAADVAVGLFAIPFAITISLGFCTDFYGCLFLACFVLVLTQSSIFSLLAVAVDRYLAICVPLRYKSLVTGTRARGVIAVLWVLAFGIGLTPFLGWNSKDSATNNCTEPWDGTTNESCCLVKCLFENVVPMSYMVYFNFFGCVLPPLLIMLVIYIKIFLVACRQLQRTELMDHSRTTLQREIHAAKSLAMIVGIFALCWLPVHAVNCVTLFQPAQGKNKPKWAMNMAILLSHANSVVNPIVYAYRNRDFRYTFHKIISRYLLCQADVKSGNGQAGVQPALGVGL
Method: (§4) hA2a/CHO, hA2b/CHO and mA2a/CHO (Genscript) were plated at 5×10^3 cells/well into 384-well polystyrene plates at the day of experiment. Compounds were pre-incubated with cells for 30 min at 37° C., 5% CO2. Then […] adenosine was added to the cells and incubated for 30 min at 37° C., 5% CO2. Detection reagent (CISBIO) was added and the plates were incubated for 60 min at room temperature. The signal was captured by Envision.

hA1 [3] = molecular target: T1, hA1; assay: FLIPR inhibition assay in hADORA1/CHO (hA1 expressing) cells; type: cell-based; conditions: hADORA1/CHO cells, FLIPR calcium, adenosine stimulation; read-out: cAMP & FLIPR IC50 (nM) hA1
How it was run: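 CHO cells expressing human A1 were plated at 1×10^4 cells/well the day before, then loaded with FLIPR Calcium 5 dye for 60 min at 37 °C, 5% CO2. Compounds were added at several concentrations for 400 s before stimulation with […] adenosine. The calcium signal was recorded by FLIPR.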

hA2a [4] = molecular target: T2, hA2a; assay: cAMP inhibition assay in hA2a/CHO cells; type: cell-based; conditions: adenosine stimulation, read-out: cAMP & FLIPR IC50 (nM) hA2a
How it was run: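 CHO cells expressing human A2a, human A2b or mouse A2a, 5×10^3 cells/well, pre-incubated with compound 30 min at 37 °C, then stimulated with […] adenosine 30 min at 37 °C. cAMP read after 60 min room-temperature incubation with detection reagent.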

mA2a = mA2a (Mus musculus (Mouse), UniProt Q60613); assay: cAMP inhibition assay in mA2a/CHO cells; type: cell-based; conditions: adenosine stimulation, read-out: cAMP & FLIPR IC50 (nM) mA2a
Chain of mA2a (Q60613 whole entry): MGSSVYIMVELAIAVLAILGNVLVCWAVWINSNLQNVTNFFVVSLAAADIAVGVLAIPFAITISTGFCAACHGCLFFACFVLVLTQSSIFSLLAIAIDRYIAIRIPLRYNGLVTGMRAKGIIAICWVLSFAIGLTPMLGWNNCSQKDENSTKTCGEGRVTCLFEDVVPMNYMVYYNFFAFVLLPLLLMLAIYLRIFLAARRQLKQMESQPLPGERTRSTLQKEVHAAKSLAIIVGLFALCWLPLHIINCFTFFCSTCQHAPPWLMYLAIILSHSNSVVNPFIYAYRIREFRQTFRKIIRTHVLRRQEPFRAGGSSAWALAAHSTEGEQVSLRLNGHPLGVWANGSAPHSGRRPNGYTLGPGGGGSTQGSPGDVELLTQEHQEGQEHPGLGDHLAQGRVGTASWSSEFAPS
Method: as §4

T1 sequence (P30542 whole entry): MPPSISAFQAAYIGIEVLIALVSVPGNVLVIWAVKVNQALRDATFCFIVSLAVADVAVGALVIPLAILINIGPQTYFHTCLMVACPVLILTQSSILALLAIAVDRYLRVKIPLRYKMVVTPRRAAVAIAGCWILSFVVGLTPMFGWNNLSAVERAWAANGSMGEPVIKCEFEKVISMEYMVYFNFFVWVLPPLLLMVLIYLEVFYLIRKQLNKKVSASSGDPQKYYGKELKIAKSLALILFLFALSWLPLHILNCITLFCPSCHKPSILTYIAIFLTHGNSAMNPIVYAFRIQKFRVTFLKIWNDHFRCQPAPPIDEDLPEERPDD

Structure (SMILES) | IC50 (hA1 [1]) [nM] | IC50 (hA2a [2]) [nM] | IC50 (hA2b) [nM] | IC50 (hA1 [3]) [nM] | IC50 (hA2a [4]) [nM] | IC50 (mA2a) [nM]
Cn1cc(-c2c(-c3ccc(C(F)F)cc3)nc(N)n3nc(Cc4ncccc4F)nc23)ccc1=O [Example 41, 5-(5-amino-7-(4-(difluoromethyl)phenyl)-2-((3-fluoropyridin-2-yl)methyl)-[1,2,4]triazolo[1,5-c]pyrimidin-8-yl)-1-methylpyridin-2(1H)-one] | 2.2 | 3.4 | 259 | 17 | 70 | 189
Cn1cc(-c2c(-c3ncco3)nc(N)n3nc(Cc4c(F)cccc4F)nc23)ccc1=O [Example 22, 5-(5-amino-2-(2,6-difluorobenzyl)-7-(oxazol-2-yl)-[1,2,4]triazolo[1,5-c]pyrimidin-8-yl)-1-methylpyridin-2(1H)-one] | 6.8 | 12 | 168 | 25 | 8.2 | 12
Cn1cc(-c2c(-n3nccn3)nc(N)n3nc(Cc4c(F)cccc4F)nc23)ccc1=O [Example 25, 5-[5-amino-2-[(2,6-difluorophenyl)methyl]-7-(2H-1,2,3-triazol-2-yl)-[1,2,4]triazolo[1,5-c]pyrimidin-8-yl]-1-methyl-1,2-dihydropyridin-2-one] | 7.9 | 1.4 | 582 | 21 | 20 | 30
Nc1nc(-n2nccn2)c(-c2ccc3nccn3c2)c2nc(Cc3ncccc3F)nn12 [Example 94, 2-[(3-fluoropyridin-2-yl)methyl]-8-[imidazo[1,2-a]pyridin-6-yl]-7-(2H-1,2,3-triazol-2-yl)-[1,2,4]triazolo[1,5-c]pyrimidin-5-amine] | 52 | 3.5 | 94 | 41 | 7.7 | 20
Nc1nc(-c2ncco2)c(-c2ccc3nccn3c2)c2nc(Cc3ncccc3F)nn12 [Example 31, 2-((3-fluoropyridin-2-yl)methyl)-8-(imidazo[1,2-a]pyridin-6-yl)-7-(oxazol-2-yl)-[1,2,4]triazolo[1,5-c]pyrimidin-5-amine] | 137 | 3 | 80 | 188 | 14 | 51
Nc1nc(-c2ccc(F)cc2)c(-c2ccc3nccn3c2)c2nc(Cc3ncccc3F)nn12 [Example 32, 7-(4-fluorophenyl)-2-((3-fluoropyridin-2-yl)methyl)-8-(imidazo[1,2-a]pyridin-6-yl)-[1,2,4]triazolo [1,5-c]pyrimidin-5-amine] | 3.4 | 5.5 | 19 | 28 | 0.9 | 5.4
Nc1nc(-c2ncco2)c(-c2ccnc(OC(F)F)c2)c2nc(Cc3c(F)cccc3F)nn12 [Example 85, 2-(2,6-difluorobenzyl)-8-(2-(difluoromethoxy)pyridin-4-yl)-7-(oxazol-2-yl)-[1,2,4]triazolo[1,5-c] pyrimidin-5-amine] | 5.4 | 5.5 | 48 | 27 | 15 | 11
COc1ccc(-c2nc(N)n3nc(Cc4ncccc4F)nc3c2-c2ccc(=O)n(C)c2)cc1 [Example 61, 5-(5-amino-2-((3-fluoropyridin-2-yl)methyl)-7-(4-methoxyphenyl)-[1,2,4]triazolo[1,5-c]pyrimidin-8-yl)-1-methylpyridin-2(1H)-one] | 1.7 | 4.2 | 122 | 25 | 28 | 42
COc1cccc(-c2nc(N)n3nc(Cc4ncccc4F)nc3c2-c2ccc(=O)n(C)c2)c1 [Example 77, 5-(5-amino-2-((3-fluoropyridin-2-yl)methyl)-7-(3-methoxyphenyl)-[1,2,4]triazolo[1,5-c]pyrimidin-8-yl)-1-methylpyridin-2(1H)-one] | 1.4 | 3.6 | 51 | 13 | 6.7 | 17
Nc1nc(-c2ncco2)c(-c2ccnc(OC(F)F)c2)c2nc(Cc3ncccc3F)nn12 [Example 86, 8-(2-(difluoromethoxy)pyridin-4-yl)-2-((3-fluoropyridin-2-yl)methyl)-7-(oxazol-2-yl)-[1,2,4]triaz olo[1,5-c]pyrimidin-5-amine] | 21 | 8.3 | 83 | 59 | 71 | 48
Cn1cc(-c2c(-c3ccc(C(F)(F)F)cc3)nc(N)n3nc(Cc4ncccc4F)nc23)ccc1=O [Example 62, 5-(5-amino-2-((3-fluoropyridin-2-yl)methyl)-7-(4-(trifluoromethyl)phenyl)-[l,2,4]triazolo[l,5-c]pyrimidin-8-yl)-l-methylpyridin-2(1H)-one] | 5.1 | 5.2 | 602 | 27 | 184 | 318
Cn1cc(-c2c(-c3ccccn3)nc(N)n3nc(Cc4c(F)cccc4F)nc23)ccc1=O [Example 92, 5-[5-amino-2-[(2,6-difluorophenyl)methyl]-7-(pyridin-2-yl)-[1,2,4]triazolo[1,5-c]pyrimidin-8-yl]-1-methyl-1,2-dihydropyridin-2-one] | – | – | 680 | 13 | 8 | 11
Nc1nc(-c2ccc(F)cc2)c(-c2ccc(=O)n(C3CS(=O)(=O)C3)c2)c2nc(Cc3c(F)cccc3F)nn12 [Example 60, 5-(5-amino-2-(2,6-difluorobenzyl)-7-(4-fluorophenyl)-[1,2,4]triazolo[1,5-c]pyrimidin-8-yl)-1-(1,1-dioxidothietan-3-yl)pyridin-2(1H)-one] | – | – | 3300 | 40 | 56 | 16
Cn1cc(-c2c(-c3ccc(C#N)cc3)nc(N)n3nc(Cc4ncccc4F)nc23)ccc1=O [Example 57, 4-(5-amino-2-((3-fluoropyridin-2-yl)methyl)-8-(1-methyl-6-oxo-1,6-dihydropyridin-3-yl)-[1,2,4]triazolo[l,5-c]pyrimidin-7-yl)benzonitrile] | – | – | 399 | 76 | 120 | 219
Cn1nc(-c2c(-c3ccc(F)cc3)nc(N)n3nc(Cc4ncccc4F)nc23)ccc1=O [Example 30, 6-(5-amino-7-(4-fluorophenyl)-2-((3-fluoropyridin-2-yl)methyl)-[1,2,4]triazolo[1,5-f]pyrimidin-8-yl)-2-methylpyridazin-3(2H)-one] | – | – | 160 | 16 | 5.9 | 25
Cn1cc(-c2c(-c3ccc(F)cc3)nc(N)n3nc(Cc4ncc(F)cc4F)nc23)ccc1=O [Example 67, 5-(5-amino-2-((3,5-difluoropyridin-2-yl)methyl)-7-(4-fluorophenyl)-[1,2,4]triazolo[1,5-c]pyrimidin-8-yl)-1-methylpyridin-2(1H)-one] | – | – | 3200 | 13 | 22 | 21
Cc1cnc2ccc(-c3c(N4CCCC4)nc(N)n4nc(Cc5c(F)cccc5F)nc34)cn12 [Example 123, 2-(2,6-difluorobenzyl)-8-(3-methylimidazo[l,2-a]pyridin-6-yl)-7-(pyrrolidin-1-yl)-[1,2,4]triazolo [1,5-c]pyrimidin-5-amine] | – | – | 80.5 | 42.4 | 0.4 | 16.5
Cc1cc(-c2c(-c3ncco3)nc(N)n3nc(Cc4c(F)cccc4F)nc23)cc(C2CC2)n1 [Example 84, 8-(2-cyclopropyl-6-methylpyridin-4-yl)-2-(2,6-difluorobenzyl)-7-(oxazol-2-yl)-[1,2,4]triazolo[1,5-c]pyrimidin-5-amine] | – | – | 10000 | 2720 | 60 | 428
